How the values were obtained:
[1] = test system: P. falciparum 3D7A strain; experiment: Whole-cell [3H] hypoxanthine incorporation assay (GSK); type: cell-based, Plasmodium falciparum; details: mean of three independent measures
Method: GSK Tres Cantos used a whole-cell [^3H] hypoxanthine radioisotope incorporation assay to determine per cent parasite inhibition at 48 hours and 96 hours. Plasmodium falciparum 3D7A strain (Malaria Research and Reference Reagent Resource Center MR4; [32]) was maintained as described previously. Parasite growth inhibition assays and EC50 determination were carried out following standard methods. Three independent experiments were conducted for each time duration and test compound.
GlaxoSmithKline, Tres Cantos. A whole-cell [^3H]hypoxanthine radioisotope incorporation assay was performed to determine percent parasite inhibition at 48 h and 96 h. Plasmodium falciparum 3D7A strain (Malaria Research and Reference Reagent Resource Center MR4; http://www.mr4.org), was maintained in human erythrocytes (Transfusions Blood Bank, Madrid) with Albumax II medium, as previously described. Parasite growth inhibition assays and EC50 determination were carried out following standard methods. Briefly, cultures with 0.5% parasitemia and 2.5% hematocrit were incubated with the 2 μM of test drug for 48 h or 96 h. [^3H]hypoxanthine (0.8 μCi/mL) in 10 μL of RPMI was added 24 h before parasites were harvested (Cell Harvester 96™, TOMTEC, Hamden, CT). Incorporated radioactivity was quantified with a Wallac MicroBeta® TriLux (Model 1450 LS, PerkinElmer). Three independent experiments were conducted for each time duration and test compound.

P. falciparum K1 = experiment: SYBR I dye DNA staining assay (SJCRH), P. falciparum K1; details: Plasmodium falciparum, K1, 72 h, read-out: EC50 K1
Method: (§1) SJCRH used the SYBR® I dye DNA staining assay, which measures proliferation of P. falciparum in human erythrocytes [27]. Plasmodium falciparum strains 3D7 (chloroquine-sensitive) and K1 (chloroquine-resistant) (American Type Culture Collection [ATCC], Manassas, VA, USA) were maintained using established methods [28]. The assay method is as previously described [29]. […] EC50 values were calculated with the robust investigation of screening experiments (RISE) algorithm with a four-parameter logistic equation.
(§2) This group used the SYBR® I dye DNA staining assay, which measures proliferation of P. falciparum in human erythrocytes [1]. Plasmodium falciparum strains 3D7 (chloroquine-sensitive) and K1 (chloroquine-resistant) (American Type Culture Collection [ATCC], Manassas, VA) were maintained in group O? erythrocytes (Key Biologics, LLC, Memphis, TN) using established methods [2]. Serial dilutions of the test compound in DMSO were prepared to provide 10 concentrations for each compound. […] After addition of 10 µL mixed DNA dye solution in PBS per test well (10× SYBR® I, [Invitrogen, Carlsbad, CA]), 0.5% [vol/vol] Triton X-100, 0.5 mg/mL saponin), plates were shaken for 1 min at 750 rpm and incubated in the dark for 90 min. Fluorescence was measured with an EnVision®spectrophotometer (PerkinElmer, Waltham, MA) [3]. […] EC50 values were calculated with the robust investigation of screening experiments (RISE) algorithm with a four-parameter logistic equation.

P. falciparum 3D7 = experiment: SYBR I dye DNA staining assay (SJCRH), P. falciparum 3D7; details: Plasmodium falciparum, 3D7, 72 h, read-out: EC50 3D7
Method: as §1, §2

[2] = Pharmacokinetics in P. falciparum-infected humanized mice; details: for Cmax / Tmax: NOD-scid IL-2Rγ^null, mouse, po; for Cmax / Tmax / AUC (0–t): whole blood; for DNAUC(0–t): dose-normalized AUC(0–t); for DNAUC(0–t) / AUC (0–t): mean (SD)
Method: The pharmacokinetics of compounds after oral administration was determined concurrently in the same mice used for the therapeutic efficacy assay. Samples were taken at 0.25, 0.5, 1, 3, 6, 8, and 24 hours after the first dose. Compound levels were measured in 25 μL blood samples that were mixed with 25 μL of saponin (0.1% in water) and processed under standard liquid–liquid extraction conditions [39]. Pharmacokinetic parameters were calculated using WinNonlin 5.2 non-compartmental analysis.

[3] = test system: P. falciparum Pf3D7^0087/N9; experiment: Plasmodium falciparum huSCID humanized mouse model, four-day test; details: for ED90: parasitaemia at day 7 after infection, once daily for four days, mean (95% CI)
Method: In vivo testing using this model was performed by GSK at Tres Cantos, against P. falciparum 3D7 (in vivo strain Pf3D7^0087/N9generated by GSK using Pf3D7 obtained from Eduardo Dei-Cas, Institute Pasteur, Lille, France [36]) growing in peripheral blood of female NOD-scid IL-2Rγ^null mice engrafted with human erythrocytes, i e, a ‘humanized’ mouse model, following published protocols [36, 37]. Briefly, animals were infected intravenously with 20×10^6 infected erythrocytes on day 0. […] Dosing was initiated at the maximum tolerated dose in mice on day 3 after infection and continued once daily for four days. Each experimental group was n = 3 mice unless otherwise stated. Control animals received vehicle only and a quality control assay used chloroquine at target doses of 3 mg/kg and 7 mg/kg. Venous blood samples for parasitology (2 μL) were taken at days 3, 5, and 7 after infection. Anti-malarial efficacy was assessed using a standard four-day test (i e, at day 7) and blood parasitaemia was measured by fluorescence-activated cell sorting (FACS) analysis [38]. The limit of detection (per cent of P. falciparum) was 0.01%. The number of parasites ×10^6 cells was recorded and data were analysed by non-linear fitting to a logistic equation of log10 (per cent parasitaemia at day 7 after infection) versus the dose level administered.
Per cent parasitaemia at day 7 after infection in treated versus control animals was analysed using a one factor ANOVA with Tukey’s post-test analysis. […] ED90 was calculated similarly. Analysis was performed using WinNonlin 5.2 and GraphPad Prism 5.0.

[4] = target dose 50 mg/kg oral (experimental 36 mg/kg)

EC50 (P. falciparum K1) [µM]	EC50 (P. falciparum 3D7) [µM]	SMILES	other results
0.02	0.01	CN(Cc1cnc2nc(N)nc(N)c2n1)c1ccc(C(=O)N[C@@H](CCC(=O)O)C(=O)O)cc1 [Methotrexate]	–
–	0.35	CO[C@@H]1[C@H](N(C)C(=O)c2ccccc2)C[C@H]2O[C@]1(C)n1c3ccccc3c3c4c(c5c6ccccc6n2c5c31)C(=O)NC4 [Midostaurin]	–
> 12.8	0.7	O=c1[nH]c2ccccc2n1C1CCN(CCCC(c2ccc(F)cc2)c2ccc(F)cc2)CC1 [Pimozide]	–
0.02	0.04	CN1CCN(CC/C=C2/c3ccccc3Sc3ccc(S(=O)(=O)N(C)C)cc32)CC1 [Thiothixene]	–

Continued, molecule first:

SMILES	EC50 (P. falciparum K1) [µM]	EC50 (P. falciparum 3D7) [µM]	other results
CC[C@@]1(O)C(=O)OCc2c1cc1n(c2=O)Cc2c-1nc1cc3c(cc1c2CN1CCN(C)CC1)OCCO3 [Lurtotecan]	–	–	IC50 ([1]; Plasmodium falciparum): 0.191 ± 0.062 µM
CN(C)c1ccc2nc3ccc(=[N+](C)C)cc-3sc2c1 [Methylene blue]	< 0.0003	< 0.0003	–
CO[C@@]12[C@H](COC(N)=O)C3=C(C(=O)C(C)=C(N)C3=O)N1C[C@@H]1N[C@@H]12 [Mitomycin]	0.51	0.97	–
C/C=C/C[C@@H](C)C(=O)[C@H]1C(=O)N[C@@H](C(C)C)C(=O)N(C)CC(=O)N(C)[C@@H](CC(C)C)C(=O)N[C@@H](C(C)C)C(=O)N(C)[C@@H](CC(C)C)C(=O)N[C@@H](C)C(=O)N[C@H](C)C(=O)N(C)[C@@H](CC(C)C)C(=O)N(C)[C@@H](CC(C)C)C(=O)N(C)[C@@H](C(C)C)C(=O)N1C [PSC-833, valspodar]	–	–	Cmax ([2]; 50 mg/kg): 1390 ng/mL; Tmax ([2]; 50 mg/kg): 3.3 h; Cmax ([2]; 100 mg/kg): 1010 ng/mL; Tmax ([2]; 100 mg/kg): 5.33 h; Cmax ([2]; 200 mg/kg): 910 ng/mL; Tmax ([2]; 200 mg/kg): 2 h; DNAUC(0–t) [2, 4]: 0.36 (0.082) μg · h · mL^−1 · day^−1; DNAUC(0–t) ([2]; target dose 100 mg/kg oral): 0.13 (0.04) μg · h · mL^−1 · day^−1; DNAUC(0–t) ([2]; target dose 200 mg/kg oral): 0.065 (0.03) μg · h · mL^−1 · day^−1; AUC (0–t) [2, 4]: 12.90 (2.97) μg · h · mL; AUC (0–t) ([2]; target dose 100 mg/kg oral): 12.26 (4.25) μg · h · mL; AUC (0–t) ([2]; target dose 200 mg/kg oral): 13.05 (6.05) μg · h · mL; AUCED90 ([3]; blood exposure needed to inhibit parasitaemia at day 7 by 90% vs vehicle): >17.33 μg · h · mL^−1 · day^−1; ED90 [3]: >200 mg/kg; ED90 ([3]; listed as Valspodar): > 200 mg/kg
N=C(N)c1ccc(OCCCCCOc2ccc(C(=N)N)cc2)cc1 [Pentamidine]	0.05	0.22	–
COc1ccc(OC)c(Cc2cnc3nc(N)nc(N)c3c2C)c1 [Piritrexim]	–	–	IC50 ([1]; Plasmodium falciparum): 0.011 ± 0.001 µM
CC[C@H](C)C(=O)O[C@H]1C[C@H](O)C=C2C=C[C@H](C)[C@H](CC[C@@H](O)C[C@@H](O)CC(=O)O)[C@H]21 [Pravastatin]	0.12	0.75	–
CCCNCC(O)COc1ccccc1C(=O)CCc1ccccc1 (stereo not drawn) [Propafenone]	0.33	1.22	–
CCN(CC)CCN(Cc1ccc(-c2ccc(C(F)(F)F)cc2)cc1)C(=O)Cn1cc(Cc2cnn(C)c2)c(=O)nc1SCc1ccc(F)cc1 [SB-435495]	–	–	IC50 [1]: 1.13 ± 0.146 µM
CNC(=O)c1cc(Oc2ccc(NC(=O)Nc3ccc(Cl)c(C(F)(F)F)c3)cc2)ccn1 [Sorafenib]	0.88	2.71	–
Cc1ccnc(NS(=O)(=O)c2ccc(N)cc2)n1 [Sulfamerazine]	0.01	0.01	–
